{"source": "ChEMBL document CHEMBL1687862", "about": "“Prenylated flavanones with anti-tyrosinase activity from Dalea boliviana” (J Nat Prod, 2011)", "key": {"[1]": {"molecular_target": "T1, Tyrosinase (Agaricus bisporus) (UniProt O42713)", "T1 sequence (whole entry)": "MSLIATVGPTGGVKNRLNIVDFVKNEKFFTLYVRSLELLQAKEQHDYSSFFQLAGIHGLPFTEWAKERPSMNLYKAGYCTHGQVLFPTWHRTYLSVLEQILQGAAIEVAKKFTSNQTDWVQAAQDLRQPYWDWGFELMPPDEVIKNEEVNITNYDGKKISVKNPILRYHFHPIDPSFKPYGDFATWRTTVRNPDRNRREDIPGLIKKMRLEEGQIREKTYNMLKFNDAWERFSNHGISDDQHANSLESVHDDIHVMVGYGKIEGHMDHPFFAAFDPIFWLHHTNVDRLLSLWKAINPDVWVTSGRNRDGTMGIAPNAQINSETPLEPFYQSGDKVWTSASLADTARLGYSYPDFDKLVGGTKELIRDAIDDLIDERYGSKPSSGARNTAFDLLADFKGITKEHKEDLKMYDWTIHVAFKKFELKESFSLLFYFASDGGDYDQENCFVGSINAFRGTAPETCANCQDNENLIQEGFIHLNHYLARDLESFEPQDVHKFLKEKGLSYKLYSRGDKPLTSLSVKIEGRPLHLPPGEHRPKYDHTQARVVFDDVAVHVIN", "experiment": "Inhibition of mushroom tyrosinase at 100 uM preincubated for 10 mins before addition of 1.7 mM L-tyrosine measured after 20 mins by spectrophotometric method"}, "[2]": {"molecular_target": "T2, Tyrosinase (Agaricus bisporus, UniProt O42713)", "T2 sequence (O42713 whole entry)": "T1 sequence (whole entry)", "experiment": "(§1) Inhibition of mushroom tyrosinase preincubated for 10 mins before addition of 1.7 mM L-tyrosine measured after 20 mins by spectrophotometric method"}, "[3]": {"molecular_target": "T1, Tyrosinase (Agaricus bisporus)", "experiment": "as §1"}}}
{"smiles": "CC(C)=CCc1cccc([C@@H]2CC(=O)c3c(O)cc(O)c(CC=C(C)C)c3O2)c1O", "values": [{"measurement": "inhibition", "setting": "[1]", "result": 87.8, "unit": "%"}, {"measurement": "IC50", "setting": "[2]", "result": 68.5, "unit": "µM"}]}
{"smiles": "CC1(C)C=Cc2c(cc(O)c3c2O[C@H](c2ccccc2)CC3=O)O1", "values": [{"measurement": "inhibition", "setting": "[1]", "result": 16.2, "unit": "%"}]}
{"smiles": "O=C1C[C@@H](c2ccc(O)cc2)Oc2cc(O)cc(O)c21", "values": [{"measurement": "inhibition", "setting": "[1]", "result": 2.8, "unit": "%"}]}
{"smiles": "CC(C)=CCc1cccc([C@@H]2CC(=O)c3c(O)cc4c(c3O2)C=CC(C)(C)O4)c1O", "values": [{"measurement": "inhibition", "setting": "[1]", "result": 6.4, "unit": "%"}]}
{"smiles": "COc1ccc([C@@H]2CC(=O)c3c(O)cc(O)cc3O2)cc1O", "values": [{"measurement": "inhibition", "setting": "[1]", "result": 0, "unit": "%"}]}
{"smiles": "C=CC(C)(C)c1ccc(O)c([C@@H]2CC(=O)c3c(O)cc(O)c(CC=C(C)C)c3O2)c1", "values": [{"measurement": "inhibition", "setting": "[1]", "result": 82.1, "unit": "%"}, {"measurement": "IC5", "setting": "[3]", "result": 27.5, "unit": "µM"}]}
